# Measurements: article PMC7380097, “Measurement of Bradykinin Formation and Degradation in Blood Plasma: Relevance for Acquired Angioedema Associated With Angiotensin Converting Enzyme Inhibition and for Hereditary Angioedema Due to Factor XII or Plasminogen Gene Variants” (Frontiers in Medicine, 2020)
# “And” between values parts separate entries of the source, which are not always exact repeats. Equal entries are not always repeated. “Also recorded” adds a separate entry of the source. Structures can show the parent of a compound that is named as a salt. Residues, ends and D or L forms follow the SMILES beside them.
# B1: lanadelumab: Human monoclonal antibody, target plasma kallikrein (antibody, chains of the INN, looked up, V domains shown)
# VH: EVQLLESGGGLVQPGGSLRLSCAASGFTFSHYIMMWVRQAPGKGLEWVSGIYSSGGITVYADSVKGRFTISRDNSKNTLYLQMNSLRAEDTAVYYCAYRRIGVPRRDEFDIWGQGTMVTVSS
# VL: DIQMTQSPSTLSASVGDRVTITCRASQSISSWLAWYQQKPGKAPKLLIYKASTLESGVPSRFSGSGSGTEFTLTISSLQPDDFATYYCQQYNTYWTFGQGTKVEIK
# Assays:
# [1] = in vitro; format: in vitro ADME; conditions: human; for half-life at 100 nM: plasma
# Description: (§1) Venous blood was collected without contact with glass in plastic blood collection tubes with 0.11 M sodium citrate (BD Vacutainer Plus, BD Biosciences, Franklin Lake, NJ); the plasma was obtained by centrifugation (1,300 g, 20 min, room temperature), stored at −80°C until use and/or expedition on dry ice to Quebec City. The in vitro activation of plasma at 37°C (200 μl per experimental point sample) was performed precisely as described ([21]) in the presence of enalaprilat (final concentration 130 nM) to reduce the breakdown of BK. The samples were incubated for up to 120 min under rotary agitation (300 rpm) without any added stimulant or with recombinant human tissue kallikrein (KLK-1, 10 nM; gift from DiaMedica, Inc.), with the particulate contact system activator Pacific Hemostasis Kontact-APTT™ (2% v/v; used without the calcium supplement; composed mainly of magnesium aluminum silica and rabbit brain phospholipid; ThermoFisher Scientific) or with recombinant tissue plasminogen activator (tPA, 169 nM; Cathflo, Roche). The tPA concentration was reproduced from Molinaro et al. ([19]) and within the range reached in plasma during therapeutic fibrinolysis. Biotechnological inhibitors used in the mechanistic analysis of iBK formation were previously exploited ([20], [21]) and are listed in Table 2.
# An additional set of experiments aimed at measuring the rate of BK breakdown in the presence or absence of the ACE inhibitor enalaprilat or in plasma from selected human subjects: synthetic BK (100 nM) was added to 200 μl of plasma from healthy volunteers or HAE-nC1-INH patients and incubated at 37°C under agitation for 0–20 min.
# In all experiments dealing with BK EIA, the reactions were stopped by adding 1 ml of cold ethanol, as described ([21]). After further incubation on ice-water for an additional period of at least 60 min, the plasma/ethanol mixtures were cleared of precipitated proteins by centrifugation (13,000 g, 1 min), evaporated to dryness (Speed Vac apparatus) and stored at −80°C until used for BK determination. Then, the samples were reconstituted with 200 μl of distilled water, further diluted 100-fold (1,000-fold for selected samples) with the supplied EIA buffer and directly applied in duplicate to the BK EIA as recommended by the manufacturer (Phoenix Pharmaceuticals, Burlingame, CA; cat. no. EK-009-01; 96-well plate format). The BK EIA is fully cross-reactive with Lys-BK, but not at all with des-Arg^9-BK or Lys-des-Arg^9-BK.
# Numerical values are reported as means ± standard errors of the mean (S.E.M.). Sets of values were compared with Kruskall-Wallis test (non-parametric ANOVA) followed by Dunn's multiple comparison test to compare selected pairs of values. Pairs of values were compared using Mann-Whitney test (Prism 5.0, GraphPad Software Inc., San Diego, CA). The half-life (t1/2) of iBK was calculated as the first order decay procedure in a software suite ([30]).
# [2] = cited from earlier work
# Text: ACE blockade greatly increases BK persistence and pharmacological effect in human whole blood under a variety of in vitro stimulation conditions ([20]). Membrane-bound ACE produced by vascular endothelial cells is shed in an apparently regulated manner into blood plasma ([34]), allowing the use of blood/plasma/serum to monitor ACE activity in human subjects.
# [3] = Blood pressure of healthy volunteers taking enalapril maleate; format: in vivo, human; conditions: two normotensive healthy volunteers, 2 daily doses of enalapril maleate 10 mg (Figure S1)
# Description: We previously reported that iBK formation was negligible in either whole blood or plasma incubated at 37°C without stimulus both in healthy donors and HAE patients sampled during remission (HAE-C1-INH type I or II) ([20], [21]). This may be paradoxical because HK is spontaneously and progressively cleaved in the blood of patients with HAE-C1-INH ([15], [16]) or HAE-nC1-INH ([17]). A possible explanation is the efficient clearance of kinins.
# [4] = system: angiotensin converting enzyme (ACE); assay: Effect of oral enalapril maleate on ex vivo BK half-life in plasma of healthy volunteers; parameters: species or system human; conditions: 2 daily oral doses of enalapril maleate 10 mg, healthy volunteers (two), plasma 24 h after the last dose vs before dosing
# Description: Numerical values are reported as means ± standard errors of the mean (S.E.M.). […] The half-life (t1/2) of iBK was calculated as the first order decay procedure in a software suite ([30]).
# [5] = system: human B2 receptor; conditions: cited from earlier work
# [6] = system: human B1 receptor; conditions: cited from earlier work
# Text: In the plasminogen sequence, the residue 330 is not proximal to a physiological cleavage site or to the catalytic site: it is rather located within a potential adhesion site in the kringle 3 domain of the molecule ([5]). However, the K330E variant is associated with a distinct N-glysosylation pattern and an increased susceptibility to activation by urokinase-type plasminogen activator (uPA), but not by tPA (assessed only using a chromogenic substrate) ([41]). […] If uP ...
# [7] = system: iBK generation induced by tPA; assay: tPA-induced iBK generation in plasma from HAE-FXII (T328K) patients, effect of biotechnological inhibitors; format: biochemical, human; conditions: tPA 169 nM, 20 min incubation, enalaprilat 130 nM present, inhibitor added 5 min before stimulus, 37°C, EIA
# Description: as §1, with “2. […]” for “2.”
# [8] = system: KLK-1-induced iBK formation; assay: KLK-1-induced iBK formation in plasma from HAE-PLG patients, effect of lanadelumab; format: biochemical, human; conditions: KLK-1 10 nM, 5 min incubation, inhibitor added 5 min before KLK-1, enalaprilat 130 nM present, EIA
# Description: as §1, with “2. […]” for “2.”
# [9] = system: iBK generation induced by Kontact-APTT; assay: Kontact-APTT-induced iBK generation in plasma from HAE-FXII (T328K) patients, effect of biotechnological inhibitors; format: biochemical, human; conditions: Kontact-APTT 2% v/v, 5 min incubation, enalaprilat 130 nM present, inhibitor added 5 min before stimulus, 37°C, EIA
# Description: as §1, with “2. […]” for “2.”
molecule,measurement,setting,value
"NC(N)=NCCC[C@H](NC(=O)[C@H](Cc1ccccc1)NC(=O)[C@@H]1CCCN1C(=O)[C@H](CO)NC(=O)[C@H](Cc1ccccc1)NC(=O)CNC(=O)[C@@H]1CCCN1C(=O)[C@@H]1CCCN1C(=O)[C@@H](N)CCCN=C(N)N)C(=O)O [BK, Bradykinin] (H-RPPGFSPFR-OH)",half-life at 100 nM,"[1]; female, BK t1/2 in plasma of family d (HAE-nC1-INH, unknown cause)",22.5 s
same,half-life (t1/2) of BK in normal plasma,[1],33 s
same,half-life at 100 nM,[1]; BK t1/2 in plasma 24 h after 2nd oral dose of enalapril maleate,190 s
same,half-life at 100 nM,[1]; BK t1/2 in plasma before dosing (baseline),39.5 s
same,half-life at 100 nM,[1]; half-life (t1/2) of BK in normal plasma,34 s
same,half-life at 100 nM,[1]; half-life (t1/2) of BK in plasma with ACE blocked by enalaprilat,426 s
same,t1/2 of BK in serum,[2],27 s
CCOC(=O)[C@H](CCc1ccccc1)N[C@@H](C)C(=O)N1CCC[C@H]1C(=O)O [enalapril maleate],blood pressure change during the experiment,[3],slight reversible drop
same,fold increase of BK t1/2 in plasma after oral dosing,[4],~ 5 fold and 4.8 fold
Lys-BK: kinin formed by KLK-1 mainly from low molecular weight kininogen; direct B2 receptor agonist,potency relative to BK at the human B2 receptor,[5],approximately equipotent
Lys-des-Arg^9-BK,agonist status at the human B1 receptor,[6],optimal agonist
des-Arg^9-BK,change of half-life of synthetic des-Arg9-BK when ACE is blocked,[2],doubled
same,affinity for the human form of the B1 receptor,[6],low affinity
B1,effect on early iBK release induced by tPA,[7],significantly decreased; also recorded: suppressed
same,effect on KLK-1-induced iBK formation,[8],not decreased; also recorded: Lack of effect; also recorded: did not inhibit
same,effect on early iBK response to Kontact-APTT,[9],significantly decreased
